Data published in ChEMBL document CHEMBL1201862, “PubChem BioAssay data set” (2004).
Active and inactive are the calls of the source. Rule as the data show it, for most assays here: actives have a measured EC50 and inactives only a lower limit.

How the values were obtained:
[1] = target: Heat shock protein HSP 90-alpha (Homo sapiens, UniProt P07900); experiment: Luminescence-based dose response biochemical high throughput screening assay for inhibitors of the Heat Shock Protein 90 (HSP90). [Related pubchem assays: 1831 (Summary AID.), 1846 (Confirmation screen.), 1789 (Primary screen.)]
BJ [2] = experiment: cytotoxicity toward Ras-transformed BJeLR fibroblasts, dose response, cell-based, alamar blue fluorescence, cherrypicked samples (AID 2631); format: functional; details: Homo sapiens;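 also: confirmatory dose-response assay in RAS-dependent BJ fibroblasts engineered with TERT, LT and ST, with cytotoxicity read by fluorescence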
BJ [3] = experiment: cells; format: functional, cell-based; details: Homo sapiens
BJ [4] = experiment: cytotoxicity toward BJ-TERT-LT-ST fibroblasts, dose response, cell-based, RAS-independent, luminescence (AID 1935); format: functional; details: Homo sapiens;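 also: BJ fibroblasts immortalized with TERT plus LT and ST oncogenes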
[5] = cytotoxicity toward DRD oncogenic fibroblasts, dose response, cell-based, non-viral oncogenic, luminescence (AID 1934); format: functional; details: Homo sapiens
Beta-galactosidase = Beta-galactosidase (Escherichia coli, UniProt Q8VNN2); experiment: PubChem AID 485352; format: functional
[6] = target: T1, Type-1 angiotensin II receptor (Homo sapiens, UniProt P30556); experiment: AT1 receptor antagonists, dose response, selectivity assay for APJ receptor antagonist project, cell-based, uHTS hits (AID 463214); format: functional;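 also: antagonist potency against angiotensin II stimulated AT1 response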
T1 sequence (P30556 whole entry): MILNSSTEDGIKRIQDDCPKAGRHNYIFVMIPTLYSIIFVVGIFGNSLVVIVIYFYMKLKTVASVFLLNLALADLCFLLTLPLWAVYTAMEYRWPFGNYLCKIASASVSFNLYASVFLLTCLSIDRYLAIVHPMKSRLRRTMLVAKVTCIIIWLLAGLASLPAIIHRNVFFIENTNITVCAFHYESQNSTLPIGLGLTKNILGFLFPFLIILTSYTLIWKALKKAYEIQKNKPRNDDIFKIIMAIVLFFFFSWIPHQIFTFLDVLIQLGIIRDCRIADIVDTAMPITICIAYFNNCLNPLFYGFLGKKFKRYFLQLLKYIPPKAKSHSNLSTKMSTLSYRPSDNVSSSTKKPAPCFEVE

[7] = target: T2, Heat shock factor protein 1 (Mus musculus, UniProt P38532); experiment: inhibition of MG132-induced HSE-luciferase signal, confirmation, cell-based, NIH3T3, luminescence, dose retest (AID 2382); format: functional;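 also: NIH3T3 fibroblasts with HSF1-driven luciferase reporter stressed by proteasome inhibitor MG132; luminescence from HSF1-driven luciferase expression after 8 hours of MG132 stress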
T2 sequence (P38532 whole entry): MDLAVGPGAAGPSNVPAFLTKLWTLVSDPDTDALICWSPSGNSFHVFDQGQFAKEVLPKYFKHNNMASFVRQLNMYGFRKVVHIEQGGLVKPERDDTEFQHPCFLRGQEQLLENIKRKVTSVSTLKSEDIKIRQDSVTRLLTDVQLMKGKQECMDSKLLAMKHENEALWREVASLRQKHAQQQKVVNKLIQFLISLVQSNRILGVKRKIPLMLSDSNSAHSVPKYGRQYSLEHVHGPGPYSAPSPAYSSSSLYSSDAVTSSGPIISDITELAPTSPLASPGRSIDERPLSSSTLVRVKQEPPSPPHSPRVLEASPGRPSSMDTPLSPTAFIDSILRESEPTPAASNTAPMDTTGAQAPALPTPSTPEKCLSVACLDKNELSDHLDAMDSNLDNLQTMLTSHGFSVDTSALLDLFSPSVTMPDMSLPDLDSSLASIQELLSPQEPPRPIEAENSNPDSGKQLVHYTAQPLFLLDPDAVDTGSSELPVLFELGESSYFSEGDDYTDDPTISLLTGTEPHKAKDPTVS

BJ [8] = experiment: cytotoxicity toward BJ-TERT fibroblasts, dose response, cell-based, RAS-independent, luminescence (AID 1933); format: functional; details: Homo sapiens
[9] = target: UDP-galactopyranose mutase (Mycobacterium tuberculosis, UniProt P9WIQ1); experiment: Inhibitors of Mycobacterium tuberculosis UDP-galactopyranose mutase (UGM) enzyme Measured in Biochemical System Using Plate Reader - 2105-02_Inhibitor_Dose_CherryPick_Activity. [Related pubchem assays (depositor defined):AID504439]
[10] = target: T3, Corticotropin-releasing factor receptor 2/Corticotropin-releasing factor-binding protein (Homo sapiens, UniProt P24387+Q13324); experiment: activators of CRF receptor 2 with binding protein – uHTS hits, confirmation (AID 602473); format: functional; details: read-out: EC50_Mean
T3 sequence (Q13324 whole entry): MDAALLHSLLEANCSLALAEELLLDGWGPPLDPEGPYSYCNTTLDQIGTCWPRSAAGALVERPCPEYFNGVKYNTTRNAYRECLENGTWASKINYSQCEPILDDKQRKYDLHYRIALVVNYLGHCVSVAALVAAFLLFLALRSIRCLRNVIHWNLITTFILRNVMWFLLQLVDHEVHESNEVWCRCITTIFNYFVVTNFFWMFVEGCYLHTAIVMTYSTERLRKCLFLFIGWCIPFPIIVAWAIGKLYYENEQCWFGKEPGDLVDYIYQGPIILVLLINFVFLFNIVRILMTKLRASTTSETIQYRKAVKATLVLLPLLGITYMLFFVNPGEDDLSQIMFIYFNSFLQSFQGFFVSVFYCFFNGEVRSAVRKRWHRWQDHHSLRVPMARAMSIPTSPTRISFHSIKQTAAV
T3 sequence (P24387 whole entry): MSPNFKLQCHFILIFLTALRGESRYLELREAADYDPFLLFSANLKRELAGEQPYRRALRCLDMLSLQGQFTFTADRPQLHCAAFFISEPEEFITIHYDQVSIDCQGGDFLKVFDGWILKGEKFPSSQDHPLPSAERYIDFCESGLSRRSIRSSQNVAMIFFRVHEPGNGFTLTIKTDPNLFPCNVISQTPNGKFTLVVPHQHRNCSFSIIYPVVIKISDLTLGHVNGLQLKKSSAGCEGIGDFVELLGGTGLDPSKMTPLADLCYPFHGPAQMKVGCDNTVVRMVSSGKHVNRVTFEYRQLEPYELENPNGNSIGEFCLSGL

HeLa = experiment: HeLa cell cytotoxicity, dose response, cytotoxicity control for MITF activator project, CellTiter-Glo luminescence, cherry-pick samples (AID 540259); format: functional, cell-based; details: Homo sapiens
Escherichia coli = experiment: microbe, parasite or virus in culture

Beta-galactosidase, sequence (Q8VNN2 whole entry): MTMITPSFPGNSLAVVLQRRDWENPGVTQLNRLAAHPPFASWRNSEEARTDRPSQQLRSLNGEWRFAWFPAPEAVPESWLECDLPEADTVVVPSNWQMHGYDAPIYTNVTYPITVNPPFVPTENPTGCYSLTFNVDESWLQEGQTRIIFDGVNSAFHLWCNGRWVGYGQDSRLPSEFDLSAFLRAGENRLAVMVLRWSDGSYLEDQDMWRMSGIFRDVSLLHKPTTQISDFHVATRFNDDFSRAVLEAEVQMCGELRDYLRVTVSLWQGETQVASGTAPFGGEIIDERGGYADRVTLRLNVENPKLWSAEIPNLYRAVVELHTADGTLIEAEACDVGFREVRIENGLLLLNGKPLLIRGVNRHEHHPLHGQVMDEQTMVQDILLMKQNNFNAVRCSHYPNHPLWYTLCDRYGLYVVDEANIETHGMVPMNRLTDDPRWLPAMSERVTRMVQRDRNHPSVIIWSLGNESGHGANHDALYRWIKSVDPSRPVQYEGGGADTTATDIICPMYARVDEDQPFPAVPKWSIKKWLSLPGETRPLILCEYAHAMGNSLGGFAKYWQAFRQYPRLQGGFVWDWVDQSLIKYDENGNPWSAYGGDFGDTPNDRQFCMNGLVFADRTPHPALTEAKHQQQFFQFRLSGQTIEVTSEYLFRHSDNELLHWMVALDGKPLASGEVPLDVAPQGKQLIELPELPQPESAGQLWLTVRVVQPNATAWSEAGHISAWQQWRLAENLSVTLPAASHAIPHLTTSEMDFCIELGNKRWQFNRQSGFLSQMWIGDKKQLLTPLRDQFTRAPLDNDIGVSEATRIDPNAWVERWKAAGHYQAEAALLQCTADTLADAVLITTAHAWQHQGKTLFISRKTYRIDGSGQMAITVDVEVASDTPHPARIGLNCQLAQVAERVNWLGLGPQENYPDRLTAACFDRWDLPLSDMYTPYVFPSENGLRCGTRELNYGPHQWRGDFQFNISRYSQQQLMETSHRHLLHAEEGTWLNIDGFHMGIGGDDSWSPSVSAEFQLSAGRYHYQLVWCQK
UDP-galactopyranose mutase, sequence (P9WIQ1 whole entry): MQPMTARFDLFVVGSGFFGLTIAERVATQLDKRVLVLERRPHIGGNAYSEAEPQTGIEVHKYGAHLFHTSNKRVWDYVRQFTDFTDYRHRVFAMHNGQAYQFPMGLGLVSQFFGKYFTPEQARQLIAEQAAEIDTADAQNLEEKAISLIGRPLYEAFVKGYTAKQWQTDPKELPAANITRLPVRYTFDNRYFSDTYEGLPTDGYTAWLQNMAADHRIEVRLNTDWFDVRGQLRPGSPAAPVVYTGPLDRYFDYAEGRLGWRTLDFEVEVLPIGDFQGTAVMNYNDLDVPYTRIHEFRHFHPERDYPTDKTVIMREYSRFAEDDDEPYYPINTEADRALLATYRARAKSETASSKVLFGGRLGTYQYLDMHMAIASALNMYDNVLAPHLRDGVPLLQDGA

## O=[N+]([O-])c1ccc(N=Nc2ncc[nH]2)cc1
[1]
  IC50: 10.2 µM (not active)
BJ [2]
  EC50: 14.8 µM (active)
BJ [3]
  EC50: 2.43 µM (inconclusive)
BJ [4]
  EC50: > 150 µM (inconclusive)
[5]
  EC50: 11.5 µM (inconclusive)
Beta-galactosidase
  EC50: > 40 µM (inactive)
[6]
  IC50: 23.5 µM (not active)
[7]
  EC50: 8.49 µM (active)
BJ [8]
  EC50: 5.4 µM (inconclusive)

## N#C/C(=C\C=C\c1ccccc1)c1nc(-c2ccc3c(c2)OCO3)cs1
[9]
  AC50: 38.5 µM (active)
[10]
  EC50: 9.03 µM (active)

## O=C(c1cnn2ccccc12)N1CCc2ccccc21
HeLa
  AC50: 58.6 µM (active)

## COc1ccccc1NC(=S)NC(=O)C(C)C
Escherichia coli
  AC50: 50.3 µM (active)

## COc1ccc(OCc2cc(C(=O)NC(C)c3cnn(C)c3)no2)c(Cl)c1 (centres undefined)
HeLa
  AC50: 79.6 µM (active)
